Measured values taken from patent US4837316A, “Alkylamide derivatives with H2 -receptor antagonistic and cytoprotective action” (Fujirebio Kabushiki Kaisha, priority 1985, dated 1989).

Key:
[1] = target: T1, Histamine H2-receptor (Cavia porcellus, UniProt P47747); test: Histamine H2-receptor antagonistic action (isolated right atrium, histamine response); conditions: isolated guinea-pig right atrium, 32° C., tested compound 1×10^-6 M or 1×10^-7 M, Van Rossum method; for Kb: read-out: pA2 (converted)
T1 construct: the right atrium was isolated rapidly; from tissue; host or cells: guinea pig right atrium (isolated organ)
T1 sequence (P47747 whole entry): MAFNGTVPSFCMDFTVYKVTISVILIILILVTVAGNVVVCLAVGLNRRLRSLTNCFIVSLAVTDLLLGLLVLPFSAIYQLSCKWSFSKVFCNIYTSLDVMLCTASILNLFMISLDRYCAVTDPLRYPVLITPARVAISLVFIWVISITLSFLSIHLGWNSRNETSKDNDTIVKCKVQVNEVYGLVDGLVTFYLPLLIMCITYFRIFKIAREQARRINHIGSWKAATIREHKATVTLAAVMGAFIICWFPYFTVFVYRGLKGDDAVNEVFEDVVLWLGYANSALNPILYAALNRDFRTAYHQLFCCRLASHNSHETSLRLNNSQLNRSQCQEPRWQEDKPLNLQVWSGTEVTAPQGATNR
Experimental: Histamine H2 -receptor antagonistic actions of the exemplified compounds were measured. Male Guinea-Pig weighing 300 to 350 g was killed by a blow on the head. After thoracotomy, the right atrium was isolated rapidly, and the surrounding tissues of the right atrium was carefully dissected. The preparation was mounted isometrically in 30 ml organ bath containing an oxygenated (O2 95%+CO2 5%) Krebs-Henselite solution at 32° C. 1 g of resting tension was loaded through the experiment. Contraction of the right atrium to histamine was measured with a force-displacement transducer, and heart rate was measured with a heart rate meter. After the control dose-response curve in the presence of tested compound (1×10^-6 M or 1×10^-7 M) was determined.
The pA2 value of each compound was determined from these two curves by the method of J. M. Van Rossum (Arch. Int. Pharmacodyn. Ther 143-299 (1963)).

[2] = test system: gastric mucosal leasion; test: Cytoprotective action (gastric mucosal lesion by necrotizing agent 0.4N HCl+50% EtOH); format: in vivo, Male Donryu rats; conditions: Rattus norvegicus, po; 10 mg/kg P.O., 30 minutes before 5 ml/kg 0.4N HCl+50% EtOH; stomach taken 1 hour after; read-out: Repression % (inhibition % of total area of gastric mucosal leasion vs control)
Experimental: Cytoprotective actions of the exemplified compounds were examined.
Male Donryu rats weighing 150-250 g were used after fasting for 24 hours. 10 mg/kg P.O. of the test compound was administrated, and 5 ml/kg of a necrotizing agent (0.4N HCl+50% EtOH) was orally administrated after 30 minutes. After 1 hour from the administration of the necrotizing agent, its stomach was dissected out, and fixed with formalin. Total area of gastric mucosal leasion was measured, and compared with a control group to determine inhibition %.

| SMILES | Kb [1] [µM] | inhibition in vivo at 10 mg/kg [2] [%] | pA2 [1] |
| --- | --- | --- | --- |
| O=C(CSCc1ccccc1)NCCCOc1cccc(CN2CCCCC2)c1 [Compound 1, N-[3-{3-(piperidinomethyl)phenoxy}propyl]-2-(benzylthio)acetamide] | 0.0316 | 59 | – |
| COc1ccc(CSCC(=O)NCCCOc2cccc(CN3CCCCC3)c2)cc1 [Compound 12, N-[3-{3-(piperidinomethyl)phenoxy}propyl]-2-(4-methoxybenzylthio)acetamide] | 0.0501 | – | – |
| O=C(CSCCCc1ccccc1)NCCCOc1cccc(CN2CCCCC2)c1 [Compound 14, N-[3-{3-(piperidinomethyl)phenoxy}propyl]-2-(3-phenylpropyl-1-thio)acetamide] | – | 55 | – |
| O=C(CSCC1CCCCC1)NCCCOc1cccc(CN2CCCCC2)c1 [Compound 16, N-[3-{3-(piperidinomethyl)phenoxy}propyl]-2-(cyclohexylmethylthio)acetamide] | 0.0126 | – | – |
| O=C(CSCc1ccco1)NCCCOc1cccc(CN2CCCCC2)c1 [Compound 19, N-[3-{3-(piperidinomethyl)phenoxy}propyl]-2-(furfurylthio)acetamide] | 0.0501 | 63 | – |
| O=C(CSCc1cccs1)NCCCOc1cccc(CN2CCCCC2)c1 [Compound 20] | – | 45 | – |
| O=C(CSCc1ccc2ccccc2c1)NCCCOc1cccc(CN2CCCCC2)c1 [Compound 21, N-[3-{3-(piperidinomethyl)phenoxy}propyl]-2-(2-naphthylmethylthio)acetamide] | – | 60 | – |
| O=C(CCCSCc1ccccc1)NCCCOc1cccc(CN2CCCCC2)c1 [Compound 30] | – | 62 | – |
| O=C(CCCCCSCc1ccccc1)NCCCOc1cccc(CN2CCCCC2)c1 [Compound 35, N-[3-{3-(piperidinomethyl)phenoxy}propyl]-6-(benzylthio)hexylamide] | – | 61 | – |
| O=C(C[S+]([O-])Cc1ccccc1)NCCCOc1cccc(CN2CCCCC2)c1 (centres unmarked) [Compound 44, N-[3-{3-(piperidinomehtyl)phenoxy}propyl]-2-(benzylsulfinyl)acetamide] | 0.251 | 73 | – |
| O=C(CS(=O)(=O)Cc1ccccc1)NCCCOc1cccc(CN2CCCCC2)c1 [Compound 45, N-[3-{3-(piperidinomethyl)phenoxy}propyl]-2-(benzylsulfonyl)acetamide] | – | 72 | – |
| O=C(C[S+]([O-])Cc1ccco1)NCCCOc1cccc(CN2CCCCC2)c1 (centres unmarked) [Compound 46, N-[3-[3-(piperidinomethyl)phenoxy}propyl]-2-(furfurylsulfinyl)acetamide] | – | 72 | – |
| O=C(CS(=O)(=O)Cc1ccco1)NCCCOc1cccc(CN2CCCCC2)c1 [Compound 47, N-[3-[3-(piperidinomethyl)phenoxy]propyl]-2-(furfurylsulfonyl)acetamide] | – | 85 | – |
| O=C(CSCc1ccc(C(=O)O)cc1)NCCCOc1cccc(CN2CCCCC2)c1 [Compound 48, N-[3-{3-(piperidinomethyl)phenoxy}propyl]-2-(4-carboxylbenzylthio)acetamide] | 0.0316 | – | – |
| O=C(CSCc1ccoc1)NCCCOc1cccc(CN2CCCCC2)c1 [Compound 57, N-[3-{3-(piperidinomethyl)phenoxy}propyl]-2-(3-furylmethylthio)acetamide] | 0.0316 | 69 | – |
| CC(SCC(=O)NCCCOc1cccc(CN2CCCCC2)c1)c1ccco1 (centres unmarked) [Compound 58, N-[3-{3-(piperidinomethyl)phenoxy}propyl]-2-{1-(2-furyl)ethylthio}acetamide] | 0.0316 | – | – |
| Cc1ccc(CSCC(=O)NCCCOc2cccc(CN3CCCCC3)c2)o1 [Compound 69, N-[3-{3-(piperidinomethyl)phenoxy}propyl]-2-(5-methyl-furfurylthio)acetamid] | 0.00398 | 59 | – |
| CC1CCN(Cc2cccc(OCCCNC(=O)CS(=O)(=O)Cc3ccoc3)c2)CC1 [Compound 72] | 0.1 | 60 | – |
| CC1CCCN(Cc2cccc(OCCCNC(=O)CS(=O)(=O)Cc3ccoc3)c2)C1 (centres unmarked) [Compound 73] | 0.0501 | 88 | – |
| CC1CCCCN1Cc1cccc(OCCCNC(=O)CS(=O)(=O)Cc2ccoc2)c1 (centres unmarked) [Compound 74] | 0.631 | 50 | – |

| SMILES | Kb [1] [µM] | inhibition in vivo at 10 mg/kg [2] [%] | pA2 [1] |
| --- | --- | --- | --- |
| COC(=O)c1ccc(CSCC(=O)NCCCOc2cccc(CN3CCCCC3)c2)o1 [Compound 75, N-[3-{3-(piperidinomethyl)phenoxy}propyl]-2-{(5-methoxycarbonyl)furfurylthio}acetamide] | 0.02 | – | – |
| COc1ccc(CSCC(=O)NCCCOc2cccc(CN3CCCCC3)c2)nc1 [Compound 79] | 0.00794 | 53 | – |
| O=C(CSCc1cccc(Cl)n1)NCCCOc1cccc(CN2CCCCC2)c1 [Compound 82, N-[3-{3-(piperidinomethyl)phenoxy}propyl]-2-(6-chloro-2-pyridylmethylthio)acetamide] | 0.02 | 61 | – |
| Cc1cccc(CSCC(=O)NCCCOc2cccc(CN3CCCCC3)c2)n1 [Compound 86] | 0.0251 | – | – |
| O=C(CSCc1ccco1)NCCSCc1ccc(CN2CCCCC2)o1 [Compound 89] | – | 46 | – |
| O=C(CSCc1ccco1)NCCSCc1ccc(C=CCN2CCCC2)s1 [Compound 93] | – | 43 | – |
| O=C(CSCc1ccco1)NCCSCc1ccc(CN2CCCCC2)s1 [Compound 94] | 0.316 | – | – |
| O=C(CSCc1ccco1)NCCCOc1cc(CN2CCCCC2)ccn1 [Compound 100] | 0.1 | 35 | – |
| NC(N)=Nc1nc(CSCCNC(=O)CSCc2ccoc2)cs1 [Compound 104] | 0.2 | 50.6 | – |
| NC(N)=Nc1nc(CSCCNC(=O)CSCc2ccccc2)cs1 [Compound 105] | 0.0794 | – | – |
| NC(N)=Nc1nc(CSCCNC(=O)CSCc2cccs2)cs1 [Compound 106] | 0.2 | – | – |
| NC(N)=Nc1nc(CSCCNC(=O)CSCC2CCCCC2)cs1 [Compound 107] | 0.794 | 52.3 | – |
| NC(N)=Nc1nc(CSCCNC(=O)CSCc2ccc3ccccc3c2)cs1 [Compound 108] | – | 51.2 | – |
| NC(N)=Nc1nc(CSCCNC(=O)CSCc2ccccn2)cs1 [Compound 109] | – | – | 7.6 |
| NC(N)=Nc1nc(CSCCNC(=O)CSCc2ccco2)cs1 [Compound 110] | 0.0794 | 58 | – |
| Cc1ccc(CSCC(=O)NCCCOc2cccc(CN3CCCCC3)c2)s1 [Compound 112, N-[3-{3-(piperidinomethyl)phenoxy}propyl]-2-{(5methyl-2-thienyl)methylthio}acetamide] | 0.0158 | – | – |
| O=C(CSCc1ccc(Cl)s1)NCCCOc1cccc(CN2CCCCC2)c1 [Compound 113, N-[3-{(piperidinomethyl)phenoxy}propyl]-2-{(5-chloro-2-thienyl)methylthio}acetamide] | 0.0251 | – | – |
| O=C(CSCc1ccsc1Cl)NCCCOc1cccc(CN2CCCCC2)c1 [Compound 114, N-[3-{3-(piperidinomethyl)phenoxy}propyl]-2-{(2-chloo-3-thienyl)methylthio}acetamide] | 0.0398 | – | – |
| CC(=O)Nc1ccsc1CSCC(=O)NCCCOc1cccc(CN2CCCCC2)c1 [Compound 116, N-[3-{3-(piperidinomethyl)phenoxy}propyl]-2-{(3-acetamide-2-thienyl)methylthio}acetamide] | 0.0316 | – | – |
